In ChEMBL document CHEMBL1201862, “PubChem BioAssay data set” (2004):
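Test compounds were applied to cells in 96-well plates for 48 hours at 5 doses. GI50: concentration for 50% inhibition of growth.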 The source made the active and inactive calls. No stated cut-off is given here; in the data, active = GI50 up to about 1.1 µM and inactive = higher.

Legend:
Assay in all cases: NCI-60 cell line screen, 48 h
[1] = system: NCI-H226
[2] = system: CAKI-1
[3] = system: SW-620
[4] = system: MOLT-4
[5] = system: IGROV-1
[6] = system: UO-31
[7] = system: U-251
[8] = system: T47D
[9] = system: HOP-92
[10] = system: A498
[11] = system: MCF7
[12] = system: SK-MEL-2
[13] = system: SK-OV-3
[14] = system: A549
[15] = system: Hs-578T
[16] = system: SR
[17] = system: HCT-15
[18] = system: NCI-H23
[19] = system: OVCAR-5
[20] = system: MDA-MB-435
[21] = system: NCI-H460
[22] = system: EKVX
[23] = system: M14
[24] = system: MDA-N
[25] = system: NCI-H522
[26] = system: LOX IMVI
[27] = system: UACC-62
[28] = system: HT-29
[29] = system: MDA-MB-231
[30] = system: COLO 205
[31] = system: SNB-19
[32] = system: HL-60
[33] = system: TK-10
[34] = system: RPMI-8226
[35] = system: SF-539
[36] = system: OVCAR-3
[37] = system: SF-268
[38] = system: HOP-62
[39] = system: SN12C
[40] = system: RXF 393
[41] = system: CCRF-CEM
[42] = system: BT-549
[43] = system: UACC-257
[44] = system: PC-3
[45] = system: K562
[46] = system: 786-0
[47] = system: SF-295
[48] = system: KM12
[49] = system: HCC 2998
[50] = system: DU-145
[51] = system: SK-MEL-28
[52] = system: OVCAR-4
[53] = system: ACHN
[54] = system: HCT-116
[55] = system: SK-MEL-5
[56] = system: Malme-3M

Structure (SMILES): CCOC(=O)/C(=C\Nc1c(C)n(C)n(-c2ccccc2)c1=O)C(=O)c1ccccc1
- GI50 [1]: > 100 µM (inactive)
- GI50 [2]: > 100 µM (inactive)
- GI50 [3]: > 100 µM (inactive)
- GI50 [4]: > 100 µM (inactive)
- GI50 [5]: > 100 µM (inactive)
- GI50 [6]: > 100 µM (inactive)
- GI50 [7]: > 100 µM (inactive)
- GI50 [8]: > 100 µM (inactive)
- GI50 [9]: > 100 µM (inactive)
- GI50 [10]: > 100 µM (inactive)
- GI50 [11]: > 100 µM (inactive)
- GI50 [12]: > 100 µM (inactive)
- GI50 [13]: > 100 µM (inactive)
- GI50 [14]: > 100 µM (inactive)
- GI50 [15]: > 100 µM (inactive)
- GI50 [16]: > 100 µM (inactive)
- GI50 [17]: > 100 µM
- GI50 [18]: > 100 µM (inactive)
- GI50 [19]: > 100 µM (inactive)
- GI50 [20]: > 100 µM (inactive)
- GI50 [21]: > 100 µM (inactive)
- GI50 [22]: > 100 µM (inactive)
- GI50 [23]: > 100 µM (inactive)
- GI50 [24]: > 100 µM (inactive)
- GI50 [25]: > 100 µM (inactive)
- GI50 [26]: > 100 µM (inactive)
- GI50 [27]: > 100 µM (inactive)
- GI50 [28]: > 100 µM (inactive)
- GI50 [29]: > 100 µM (inactive)
- GI50 [30]: > 100 µM (inactive)
- GI50 [31]: > 100 µM (inactive)
- GI50 [32]: > 100 µM (inactive)
- GI50 [33]: > 100 µM (inactive)
- GI50 [34]: > 100 µM (inactive)
- GI50 [35]: > 100 µM (inactive)
- GI50 [36]: > 100 µM (inactive)
- GI50 [37]: > 100 µM (inactive)
- GI50 [38]: > 100 µM (inactive)
- GI50 [39]: > 100 µM (inactive)
- GI50 [40]: > 100 µM (inactive)
- GI50 [41]: > 100 µM (inactive)
- GI50 [42]: > 100 µM (inactive)
- GI50 [43]: > 100 µM (inactive)
- GI50 [44]: > 100 µM (inactive)
- GI50 [45]: > 100 µM (inactive)
- GI50 [46]: > 100 µM (inactive)
- GI50 [47]: > 100 µM (inactive)
- GI50 [48]: 0.033 µM (active)
- GI50 [49]: > 100 µM (inactive)
- GI50 [50]: > 100 µM (inactive)
- GI50 [51]: > 100 µM (inactive)
- GI50 [52]: > 100 µM (inactive)
- GI50 [53]: > 100 µM (inactive)
- GI50 [54]: > 100 µM (inactive)
- GI50 [55]: > 100 µM (inactive)
- GI50 [56]: > 100 µM (inactive)
